Values after ≈ are worked out from the molar mass of the structure shown. Read-outs that look alike come from different tables or passages of the source.
Key:
[1] = tested on: M. tuberculosis H37Rv (ATCC 25618 Wild-type); test: microbe, parasite or virus in culture; format: cell-based
[2] = tested on: M. tuberculosis HN-878 (wild-type); test: microbe, parasite or virus in culture; format: cell-based
S. aureus NCTC 12493 = test: in vitro antistaphylococcal activity, broth microdilution method (MIC/MBC); format: cell-based, Staphylococcus aureus; conditions: for MIC / MBC: Staphylococcus aureus; for MIC: NCTC12493, lowest concentration inhibiting visible growth; for MBC: NCTC12493, lowest concentration reducing viability of inoculum by ≥99.9%, 24 h at 37° C.
[3] = Mycobacterium tuberculosis, 120 h; read-out: Mycobacterium tuberculosis strain MIC90, H37Rv
[4] = Mycobacterium tuberculosis, 120 h; read-out: Mycobacterium tuberculosis strain MIC90, HN-878

| SMILES | MIC90 [1, 3] [nM] | MIC90 [2, 4] [µM] | MBC value relative to MIC value (S. aureus NCTC 12493) | MIC (S. aureus NCTC 12493) [µg/mL] | MBC (S. aureus NCTC 12493) [µg/mL] | MIC90 ([1]; Mycobacterium tuberculosis, 120 h, read-out: Mycobacterium tuberculosis strain MIC90, H37Rv) [nM] | MIC90 ([2]; Mycobacterium tuberculosis, 120 h, read-out: Mycobacterium tuberculosis strain MIC90, HN-878) [µM] |
| --- | --- | --- | --- | --- | --- | --- | --- |
| CO[C@H]1/C=C/O[C@@]2(C)Oc3c(C)c(O)c4c(O)c(c(CNCCCn5cc(CCn6cc(F)c(=O)[nH]c6=O)nn5)c(O)c4c3C2=O)NC(=O)/C(C)=C\C=C\[C@H](C)[C@H](C)[C@@H](C)[C@@H](O)[C@@H](C)[C@H](OC(C)=O)[C@@H]1C [Compound 3A] | 3.9 (≈ 0.00386 µg/mL) | 0.059 ± 0.01 (≈ 0.0584 µg/mL) | the same | 1 (≈ 1.01 µM) | 1 (≈ 1.01 µM) | – | – |
| CO[C@H]1/C=C/O[C@@]2(C)Oc3c(C)c(O)c4c(O)c(c(CNCCOCCOCCOCn5cc(CCn6cc(F)c(=O)[nH]c6=O)nn5)c(O)c4c3C2=O)NC(=O)/C(C)=C\C=C\[C@H](C)[C@H](C)[C@@H](C)[C@@H](O)[C@@H](C)[C@H](OC(C)=O)[C@@H]1C [Compound 3B] | 3.9 (≈ 0.00427 µg/mL) | 0.096 ± 0.064 (≈ 0.105 µg/mL) | the same | 2 (≈ 1.83 µM) | 2 (≈ 1.83 µM) | – | – |
| CO[C@H]1/C=C/O[C@@]2(C)Oc3c(C)c(O)c4c(O)c(c(CNCCOCCOCCOCn5cc(CCCn6cc(F)c(=O)[nH]c6=O)nn5)c(O)c4c3C2=O)NC(=O)/C(C)=C\C=C\[C@H](C)[C@H](C)[C@@H](C)[C@@H](O)[C@@H](C)[C@H](OC(C)=O)[C@@H]1C [Compound 3C] | 3.4 (≈ 0.00377 µg/mL) | 0.07 ± 0.042 (≈ 0.0776 µg/mL) | – | – | – | – | – |
| O=c1[nH]cc(F)c(=O)[nH]1 [Compound 5-FU, 5-Fluorouracil, reference compound] | – | – | 8 times | 2 (≈ 15.4 µM) | 16 (≈ 123 µM) | – | – |
| NNC(=O)c1ccncc1 [Isoniazid, reference compound] | 280 (≈ 0.0384 µg/mL) | 0.29 (≈ 0.0398 µg/mL) | – | – | – | – | – |
| CO[C@H]1/C=C/O[C@@]2(C)Oc3c(C)c(O)c4c(O)c(c(/C=N/N5CCN(C)CC5)c(O)c4c3C2=O)NC(=O)/C(C)=C\C=C\[C@H](C)[C@H](O)[C@@H](C)[C@@H](O)[C@@H](C)[C@H](OC(C)=O)[C@@H]1C [Rifampicin, reference compound] | – | – | 16 times | 0.25 (≈ 0.304 µM) | 4 (≈ 4.86 µM) | 4.5 (≈ 0.0037 µg/mL) | 0.02 (≈ 0.0165 µg/mL) |
